One series deals with RRE hairpin RNA. In words: Fluorescence anisotropy competition with Rev-N-rhodamine probe, binding to RRE hairpin RNA. Also noted: species or system HIV. The following applies: 20° C., pH 7.4, read-out: Dissociation constant, RRE. The protocol: (§1) Binding force to each target hairpin RNA (IRES, RRE, TAR and 16S A-site) was measured by fluorescence polarization using alanine scanned peptide library (1b-1h).
(§2) Particularly, […] of each target RNA was prepared at the concentration of 10 mM, which stood at 65° C. for 10 minutes and then cooled down slowly at room temperature, leading to folding. The amphiphilic peptide was prepared respectively at the concentration of […], which were maintained at 0° C. As a probe, rev peptide labeled with rhodamine (Rev-N-rhodamine) emitting […] fluorescence was prepared at the concentration of 10 mM. Buffer was composed of 140 mM NaCl, 5 mM KCl, 1 mM MgCl2, and 20 mM HEPES (N-2-Hydroxyethylpiperazine-N′-2-Ethanesulfonic Acid, pH 7.4). Fluorescence Anisotropy was measured using AMINCO-Bowman Series Luminescence Spectrometer at 20° C. Ten nM of the probe was added in […] of buffer, to which target RNA was added to induce interaction between the probe and the target RNA. At that time, anisotropy value increased. Then, the synthesized peptide competing with the probe for binding site was added thereto with increasing the concentration slowly. Changes of fluorescence polarization were measured until fluorescence polarization reached as low as the beginning. Considering the concentration and amount of the peptide added, binding force to target RNA was calculated. That is, the binding strength between target RNA and peptide was determined according to the following KaleidaGraph. [Peptide]=Kd(Amax−A)/[Kd(A−A0)+1]×[RNA]−Kd(A−A0)^2[Probe]0/(Amax−A)(Amax−A0)
(§3) Herein, [Peptide] indicates the concentration of peptide, [RNA] indicates the concentration of target RNA, and [Probe]0 indicates the concentration of probe. A is the value of fluorescence anisotropy of sample, Amax is the value of totally bound tracer, and A0 is the value of totally free tracer.
A general note: In fluorescence polarisation assays a small probe gives low polarisation when free and higher when bound to something large.

The target in another series is TAR hairpin RNA. In words: Fluorescence anisotropy competition with Rev-N-rhodamine probe, binding to TAR hairpin RNA. More on the design: species or system HIV. The settings on record: fluorescence anisotropy, 20° C., pH 7.4; read-out: Dissociation constant, TAR. The procedure: as §1, §2, §3
A further series has as its target 16S ribosomal RNA A-site. Description: Fluorescence anisotropy competition with Rev-N-rhodamine probe, binding to 16S A-site. The following applies: 20° C., pH 7.4, read-out: Dissociation constant, 16S A-site. The procedure: as §1, §2, §3
Another series relates to IRES domain IV hairpin. Description: Fluorescence anisotropy competition with Rev-N-rhodamine probe, binding to IRES hairpin. Also noted: species or system HCV. The settings on record: for differentiation coefficient (IRES): (mean Kd to other hairpin RNA)/(Kd to one hairpin RNA); for pKd: fluorescence anisotropy, 20° C., pH 7.4, read-out: Dissociation constant, IRES. The protocol:
as §1, §2, §3

Series [1] is described as follows: Circular dichroism (CD), percentage of alpha-helix. Type of series: physicochemical. The settings on record: CD at 20° C., condition not given; for Alpha-helical rate (%), second value of pair: value after the slash; for Alpha-helical rate (%), first value of pair: value before the slash. The procedure: To investigate alpha-helix of the amphiphilic peptide (1a-1h), circular dichroism (CD) was performed. Particularly, CD was measured at 20° C. by using JASCO model J715 spectropolarimeter. Scanning was performed at 190-250 nm three times (bandwidth: 1 nm, datapitch: 0.5 nm, speed: 100 nm/min), which were averaged to obtain CD data. Spectrum was corrected by measuring background spectrum. CD signal was recorded after modulating thereof with mean residue ellipticity [Q]. Percentage (%) of alpha-helix(fn) was calculated by the following formula. [Q]=Qobs[MRW/(10lc)]
MRW=mean residue weight (dividing molecular weight by the number of peptide bond, l=pathway length (cm), c=concentration (mg/mL). fn=([Q]222−[Q]coil)/([Q]helix−[Q]coil) [Q]helix=−40,000[…]+100t [Q]coil=640−45t
[Q]222=mean residue ellipticity at 222 nm (deg cm2 mol-1), [Q]helix=ellipticity of peptide having complete helical structure, [Q]coil=ellipticity of peptide having complete random coil structure, n=number of amino acid, t=° C.
Background: Circular dichroism is widely used to follow secondary structure.

We go through 5 substances from patent publication US8084399B2, “Process for screening of a binding amphiphilic peptides specific for hairpin RNA” (priority 2009, dated 2011).

pKd: −log10 of the molar value. Where no end group is shown, it is not given here. [ ]: non-standard residue; d: D form. Dab = NCC[C@H](N)C(=O)O; Dap = NC[C@H](N)C(=O)O

For “LKKLLDapLLKKLLKLAG (LKKLL[Dap]LLKKLLKLAG-NH2; N-terminus assumed; SMILES CC(C)C[C@H](NC(=O)[C@H](CCCCN)NC(=O)[C@H](CC(C)C)NC(=O)[C@H](CC(C)C)NC(=O)[C@H](CCCCN)NC(=O)[C@H](CCCCN)NC(=O)[C@H](CC(C)C)NC(=O)[C@H](CC(C)C)NC(=O)[C@H](CN)NC(=O)[C@H](CC(C)C)NC(=O)[C@H](CC(C)C)NC(=O)[C@H](CCCCN)NC(=O)[C@H](CCCCN)NC(=O)[C@@H](N)CC(C)C)C(=O)N[C@@H](C)C(=O)NCC(N)=O) [2c, second generation peptide, hydrophilic face modified]”, the pKd at RRE hairpin RNA was 8.02; on TAR hairpin RNA, 8.24; at 16S ribosomal RNA A-site, 7.92; at IRES domain IV hairpin it was 8.42. Besides, the “differentiation coefficient (IRES)” value in the series with IRES domain IV hairpin was 2.4. The “Alpha-helical rate (%), second value of pair” value in series [1] is 61%. In addition, the “Alpha-helical rate (%), first value of pair” value in series [1] is listed as 26%.

As to “LKKLLKLLAKLLKLKG [1e, alanine scanned first generation peptide]”, the pKd was 6.89 on RRE hairpin RNA, 7.13 on TAR hairpin RNA, 6.74 at 16S ribosomal RNA A-site and 6.92 at IRES domain IV hairpin. In addition, the “differentiation coefficient (IRES)” value in the series with IRES domain IV hairpin came out at 1.1. Also, the “binding strength to IRES, in words” value with IRES domain IV hairpin (compared with the original peptide) was “reduced binding strength”. The “Alpha-helical rate (%), second value of pair” value in series [1] is reported as 43%. In addition, in series [1], the “Alpha-helical rate (%), first value of pair” value is on record as 12%.

For the substance “LKKLLKLLDabKLLKLAG (LKKLLKLL[Dab]KLLKLAG-NH2; N-terminus assumed; SMILES CC(C)C[C@H](NC(=O)[C@H](CCCCN)NC(=O)[C@H](CC(C)C)NC(=O)[C@H](CC(C)C)NC(=O)[C@H](CCCCN)NC(=O)[C@H](CCN)NC(=O)[C@H](CC(C)C)NC(=O)[C@H](CC(C)C)NC(=O)[C@H](CCCCN)NC(=O)[C@H](CC(C)C)NC(=O)[C@H](CC(C)C)NC(=O)[C@H](CCCCN)NC(=O)[C@H](CCCCN)NC(=O)[C@@H](N)CC(C)C)C(=O)N[C@@H](C)C(=O)NCC(N)=O) [2e, second generation peptide, hydrophilic face modified]”, the pKd at RRE hairpin RNA was 7.64; at TAR hairpin RNA, 7.55; on 16S ribosomal RNA A-site, 7.77; on IRES domain IV hairpin it was 8.46. In the series on IRES domain IV hairpin, the “differentiation coefficient (IRES)” value stood at 6.5. Besides, the “Alpha-helical rate (%), second value of pair” value in series [1] is 57%. Also, the “Alpha-helical rate (%), first value of pair” value in series [1] was 43%.

In the case of “LKKLLKLLDapKLLKLAG (LKKLLKLL[Dap]KLLKLAG-NH2; N-terminus assumed; SMILES CC(C)C[C@H](NC(=O)[C@H](CCCCN)NC(=O)[C@H](CC(C)C)NC(=O)[C@H](CC(C)C)NC(=O)[C@H](CCCCN)NC(=O)[C@H](CN)NC(=O)[C@H](CC(C)C)NC(=O)[C@H](CC(C)C)NC(=O)[C@H](CCCCN)NC(=O)[C@H](CC(C)C)NC(=O)[C@H](CC(C)C)NC(=O)[C@H](CCCCN)NC(=O)[C@H](CCCCN)NC(=O)[C@@H](N)CC(C)C)C(=O)N[C@@H](C)C(=O)NCC(N)=O) [2f, second generation peptide, hydrophilic face modified]”, the pKd on RRE hairpin RNA was 8.00; at TAR hairpin RNA, 7.96; on 16S ribosomal RNA A-site, 7.82; at IRES domain IV hairpin it was 7.70. The “differentiation coefficient (IRES)” value in the series with IRES domain IV hairpin worked out at 0.6. In addition, in series [1], the “Alpha-helical rate (%), second value of pair” value is on record as 57%. In addition, the “Alpha-helical rate (%), first value of pair” value in series [1] is reported as 25%.

“LKKLLKLLKALLKLKG [1f, alanine scanned first generation peptide]”: the pKd on RRE hairpin RNA is 7.04; at TAR hairpin RNA, 7.60; on 16S ribosomal RNA A-site it was 7.19; on IRES domain IV hairpin it was 7.48. Also, the “differentiation coefficient (IRES)” value with IRES domain IV hairpin is 1.8. The “Alpha-helical rate (%), second value of pair” value in series [1] is on record as 45%. Moreover, the “Alpha-helical rate (%), first value of pair” value in series [1] is given as 17%.
